In PMC3646678, “Sodium-calcium exchangers in rat trigeminal ganglion neurons” (Molecular Pain, 2013) one finds IC50 data, which are given here for three compounds.

pIC50: −log10 of the molar value.

As a reminder, the pIC50 is −log10 of the IC50, conventionally taken in molar units. Higher therefore signals a small IC50.

This assay has as its system T1, NCX1 (Na+-Ca2+ exchanger).
T1 construct: gene Slc8a1
Description: fura-2 Ca2+ influx by reverse NCX activity (Li+ for Na+ substitution) in native rat TG neurons. The class given is cell-based.
As for `N=C(N)SCCc1ccc(OCc2ccc([N+](=O)[O-])cc2)cc1` [KB-R7943], the pIC50 was 5.51.

`CCOc1ccc(Oc2ccc(OCc3cc(F)ccc3F)cc2)c(N)c1` [SEA0400, 2-[4-[(2,5-difluorophenyl)methoxy]phenoxy]-5-ethoxyaniline] had a pIC50 of 7.52. Compound `CCOC(=O)C1CSC(Cc2ccc(OCc3ccc([N+](=O)[O-])cc3)cc2)N1` (stereo not drawn) [SN-6] gave a pIC50 of 6.29.
